Assay results taken from PubChem BioAssay AID720495 (Broad Institute, 2013).
Where “and” joins values, the source holds several entries; their conditions need not be identical. Equal entries are not always repeated. Records with an inconclusive call do not appear.

Biological target: Protein AF-9 (Homo sapiens) (UniProt P42568)
Assay: inhibitors of AF4-AF9 protein interaction, dose response, biochemical, cherry-picked samples, plate reader (AID 720495)
Settings: biochemical protein-protein interaction assay

Protein AF-9 (Homo sapiens), sequence (P42568 whole entry, looked up): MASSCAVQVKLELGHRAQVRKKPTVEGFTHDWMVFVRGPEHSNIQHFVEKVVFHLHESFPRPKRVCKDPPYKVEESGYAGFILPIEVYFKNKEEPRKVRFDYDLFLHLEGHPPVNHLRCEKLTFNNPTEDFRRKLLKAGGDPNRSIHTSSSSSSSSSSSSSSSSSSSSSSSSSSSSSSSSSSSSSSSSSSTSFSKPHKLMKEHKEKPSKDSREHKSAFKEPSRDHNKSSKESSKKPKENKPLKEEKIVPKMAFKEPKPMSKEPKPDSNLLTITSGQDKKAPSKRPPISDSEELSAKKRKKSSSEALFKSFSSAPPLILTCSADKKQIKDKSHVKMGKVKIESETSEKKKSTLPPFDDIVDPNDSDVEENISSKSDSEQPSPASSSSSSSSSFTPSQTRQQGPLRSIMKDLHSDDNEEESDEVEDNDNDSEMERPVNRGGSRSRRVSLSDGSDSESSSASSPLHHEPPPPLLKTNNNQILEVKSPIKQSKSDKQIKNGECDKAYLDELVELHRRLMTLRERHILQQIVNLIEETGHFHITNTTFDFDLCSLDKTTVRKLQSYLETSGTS

SMILES	AC50
COc1cc(OC)c2c(c1C(CCN1CCOCC1)c1ccc(N(C)C)cc1)OC(=O)CC2c1ccc(N(C)C)cc1 (configuration not stated)	10.7 µM
C[C@@H]1NC(=O)N[C@@H]1CCCCCC(=O)O	< 0.08 µM
CN(C)c1ccc(C=c2c3cc(O)ccc3n3c2cc(-c2ccccc2)[n+]3C)cc1	0.975 µM
COc1ccc(NCc2nn(CC(=O)c3ccc(Br)cc3)c3[n+]2CCCCC3)cc1	8.83 µM
COc1cc(C2CC(=O)Oc3c(C(CCN4CCOCC4)c4ccc(N(C)C)cc4)c(OC)cc(OC)c32)cc(OC)c1OC (configuration not stated)	1.55 µM
Oc1c(C(c2ccccc2Cl)N2CCCC2)ccc2cccnc12 (configuration not stated)	0.995 µM
CCN(CCCl)c1cc(CN(C)C)cc(NC(=O)c2ccc(C(=O)Nc3cc(CN(C)C)cc(N(CC)CCCl)c3)cc2)c1	0.683 µM
COc1ccc(NCc2ccc(OC)c(Cn3ccnc3)c2)c(OC)c1	11.2 µM
C[C@H](CO)N1C[C@H](C)[C@@H](CN(C)Cc2ccc(Oc3ccccc3)cc2)Oc2ccc(N(C)C)cc2C1=O	10.7 µM
C#CCOCCOCCOCCNc1nc(N2CCN(C(=O)[C@H](CCCCN)n3cc([C@@H](N)C(C)CC)nn3)CC2)nc(N2CCN(C(=O)[C@H](CCCCN)n3cc([C@@H](N)CC(C)C)nn3)CC2)n1 (some centres not stated)	0.702 µM
CN(C)CCNC(=O)c1cccc(-c2cnc3c(NC=O)cc(/C=C/c4ccccc4)cn23)c1	0.523 µM
COC1=C(Nc2ccccc2OC)C(=O)c2ccccc2C1=O	3.9 µM
CCOc1ccc(NCc2cccn2-c2nnc(N3CCC(C(=O)NCCCN4CCCCC4)CC3)s2)cc1	5.94 µM
Cc1[nH]c2ccc(O)cc2c1CCN	5.35 µM
CCN(CC)c1ccc(CNc2ccc3c(c2)ncn3C(C)(C)C)cc1	3.48 µM
O=C1C(NS(=O)(=O)c2ccc(Cl)cc2)=C(N2CCCCC2)C(=O)c2ccccc21	< 0.08 µM
O=C1c2c(O)ccc(O)c2C(=O)c2c(NCCNCCO)ccc(NCCNCCO)c21	0.15 µM and 0.374 µM
CN(C)CC/C=C1/c2ccc(F)cc2Sc2ccc(Cl)cc21	5.01 µM
C[C@@H]1CN([C@@H](C)CO)C(=O)c2cc(N(C)C)ccc2O[C@@H](C)CCCCO[C@@H]1CN(C)Cc1ccc(C(F)(F)F)cc1	10.5 µM
CN(C)c1ccc(N=Cc2cccn2C)cc1	0.83 µM
COc1ccc(C(CCNCc2ccc(N(C)C)cc2)c2ccccc2OC)cc1 (configuration not stated)	6.09 µM
Oc1c(C(Nc2cccc(C(F)(F)F)c2)c2ccncc2)ccc2cccnc12 (configuration not stated)	0.515 µM
CCN(CC)CCOc1ccc2c(c1)C(=NNC(=O)c1ccccn1)c1cc(OCCN(CC)CC)ccc1-2	3.66 µM
O=C(c1ccc(-c2cc(O)c3ncccc3c2)cc1)N1CCNCC1	0.426 µM

SMILES	AC50
COc1cc(O)c(C(CCN2CCCCC2)c2ccc(N(C)C)cc2)c(OC)c1 (configuration not stated)	10.2 µM
CCN(CC)c1ccc(CNc2nc3ccccc3n2CCN2CCCCC2)cc1	5.83 µM
Cc1ccn2c(Nc3ccc4c(c3)OCO4)c(-c3ccccn3)nc2c1	3.55 µM
CC1(C)CNc2cc(N)ccc2S1	2.52 µM
COc1ccc2nc3ccccc3nc2c1N	3.44 µM
Cc1c(P(=S)(c2ccccc2)c2ccccc2)[n+]2ccccc2n1C	7.98 µM
CN(C)c1ccc(CNCCC(Cc2ccccc2)c2ccco2)cc1 (configuration not stated)	5.44 µM
CCCCCc1cc(=O)oc2c(C(CCN3CCCC3)c3ccc(N(C)C)cc3)c(OC)cc(OC)c12 (configuration not stated)	2.31 µM
COc1cc(OC)c2c(-c3ccccc3)cc(=O)oc2c1C(CCN1CCCC(C)C1)c1ccc(N(C)C)cc1 (configuration not stated)	0.943 µM
COC1=C(Nc2ccc(O)cc2)C(=O)c2ccccc2C1=O	9.8 µM
CN(C)c1ccc(N=Nc2ccccc2Br)cc1	10.3 µM
CCSc1ccc(-c2cc(NC=O)c3ncc(-c4cccc(C(=O)NCCN(C)C)c4)n3c2)cc1	0.798 µM
CN1CCN(C(c2ccc(Cl)cc2)c2cc(Cl)c3cccnc3c2O)CC1 (configuration not stated)	0.984 µM
O=C(COc1ccc2ccc(=O)oc2c1)Nc1ccc(N2CCCCC2)cc1	9.56 µM
CC(C)(c1ccccc1)c1ccc(OCC(O)CNC2CCN(Cc3ccccc3)CC2)cc1 (configuration not stated)	0.841 µM
CC1(C)CC(Nc2ccc(Nc3ccccc3)cc2)CC(C)(C)N1	6.78 µM
CN1CCN(C(c2ccc(Br)cc2)c2cc(Cl)c3cccnc3c2O)CC1 (configuration not stated)	1.47 µM
CC[n+]1c(/C=C/C=C/c2ccc(N(C)C)cc2)sc2ccccc21	0.522 µM
CN(C)CC/C=C1\c2ccc(F)cc2Sc2cc(F)c(Cl)cc21	9.52 µM
CN1CCN(C(c2ccccn2)c2cc(Cl)c3cccnc3c2O)CC1 (configuration not stated)	2.05 µM
Brc1ccc(N/N=C(/N=Nc2nn[nH]n2)c2ccccc2)cc1	5.84 µM
Cc1cccc(NC2=C(NCCO)C(=O)c3ccccc3C2=O)c1	3.55 µM
Cc1ccnc(NC(c2cccnc2)c2ccc3cccnc3c2O)c1 (configuration not stated)	0.808 µM
